Experimental data reported in the CheMixHub viscosity set.

Experiment: xn = mol fraction of the nth substance listed

CCNCC + CCCCCCO
viscosity [mPa·s], 100 kPa
Conditions	x1 = 0.0806	x1 = 0.1594	x1 = 0.2398	x1 = 0.3506	x1 = 0.4394	x1 = 0.559	x1 = 0.6502	x1 = 0.7392	x1 = 0.8506	x1 = 0.9401
293.15 K	4.73	4.11	3.54	2.83	2.32	1.71	1.32	0.98	0.65	0.43
303.15 K	3.45	3.02	2.59	2.08	1.7	1.27	1	0.75	0.52	0.37
313.15 K	2.58	2.24	1.92	1.53	1.25	0.93	0.73	0.55	0.398	0.31
323.15 K	1.97	1.71	1.46	1.16	0.95	0.71	0.56	0.44	0.33	0.27

Oc1ccc2ccccc2c1 + CCCO
viscosity [mPa·s], 101 kPa
Conditions	x1 = 0.04	x1 = 0.08	x1 = 0.12	x1 = 0.16	x1 = 0.2
293.15 K	2.6	3.004	3.529	4.172	4.954
303.15 K	2.025	2.288	2.658	3.1	3.63
313.15 K	1.635	1.803	2.062	2.37	2.764
323.15 K	1.326	1.447	1.636	1.869	2.168

Nc1ccccc1 + CC(C)CO
303 K, 101.33 kPa
Conditions	viscosity [mPa·s]
x1 = 0.1	2.305
x1 = 0.2	2.138
x1 = 0.3	2.096
x1 = 0.4	2.047
x1 = 0.5	2.073
x1 = 0.6	2.172
x1 = 0.7	2.284
x1 = 0.8	2.366
x1 = 0.9	2.715

CCNCC + CCC(C)=O
298.15 K, 101 kPa
Conditions	viscosity [mPa·s]
x2 = 0.1013	0.273
x2 = 0.2023	0.279
x2 = 0.303	0.283
x2 = 0.4034	0.287
x2 = 0.5035	0.293
x2 = 0.6034	0.3
x2 = 0.703	0.313
x2 = 0.8023	0.331
x2 = 0.9013	0.353

Nc1ccccc1 + CN(C)C=O
viscosity [mPa·s], 101.33 kPa
Conditions	x2 = 0.1013	x2 = 0.203	x2 = 0.3061	x2 = 0.4006	x2 = 0.5013	x2 = 0.6024	x2 = 0.6967	x2 = 0.8002	x2 = 0.9059
303.15 K	2.783	2.508	2.273	2.048	1.812	1.571	1.341	1.115	0.908
313.15 K	2.131	1.957	1.793	1.64	1.474	1.3	1.135	0.96	0.801

COCCOCCOCCOC + CC1COC(=O)O1
298.15 K, 101.33 kPa
Conditions	viscosity [mPa·s]
x1 = 0.0049	2.492
x1 = 0.0113	2.496
x1 = 0.0249	2.504
x1 = 0.0352	2.516
x1 = 0.0525	2.523
x1 = 0.0833	2.536
x1 = 0.1358	2.56
x1 = 0.1928	2.568
x1 = 0.2559	2.561
x1 = 0.3083	2.543
x1 = 0.3356	2.539
x1 = 0.393	2.494
x1 = 0.466	2.444
x1 = 0.4902	2.428
x1 = 0.5272	2.402
x1 = 0.5728	2.361
x1 = 0.6242	2.308
x1 = 0.6786	2.254
x1 = 0.7038	2.227
x1 = 0.8165	2.127
x1 = 0.8598	2.088
x1 = 0.8959	2.047
x1 = 0.9347	2.021
x1 = 0.964	1.99

CCNCC + CCCCCC
viscosity [mPa·s], 101 kPa
Conditions	x2 = 0.0897	x2 = 0.1836	x2 = 0.2802	x2 = 0.3738	x2 = 0.474	x2 = 0.5744	x2 = 0.6849	x2 = 0.7818	x2 = 0.8954
298.15 K	0.284	0.281	0.28	0.278	0.278	0.279	0.281	0.283	0.287
313.15 K	0.254	0.251	0.25	0.249	0.25	0.25	0.251	0.254	0.257

CCC(O)CO (configuration not stated) + CCCCO
viscosity [mPa·s], 100 kPa
Conditions	x2 = 0.101	x2 = 0.2	x2 = 0.302	x2 = 0.4	x2 = 0.5	x2 = 0.501	x2 = 0.601	x2 = 0.701	x2 = 0.801	x2 = 0.901
298.15 K	34.46	23.34	17.03	12.19	8.818	–	6.546	5.014	3.978	3.113
303.15 K	25.85	17.61	13.14	10.08	7.482	–	5.629	4.383	3.441	2.757
308.15 K	19.83	13.86	10.42	8.155	6.2	–	4.703	3.738	2.982	2.41
313.15 K	15.54	10.92	8.434	6.703	5.179	–	3.992	3.217	2.596	2.122
318.15 K	12.35	8.882	6.942	5.58	–	4.373	3.419	2.793	2.271	1.874
323.15 K	9.916	7.286	5.744	4.694	–	3.724	2.942	2.417	1.989	1.66

CCCC(=O)OC + CCCCCCC
Conditions	viscosity [mPa·s]
293.15 K, 101.33 kPa, x1 = 0.08428	0.408
293.15 K, 101.33 kPa, x1 = 0.1292	0.409
293.15 K, 101.33 kPa, x1 = 0.1965	0.413
293.15 K, 101.33 kPa, x1 = 0.2883	0.419
293.15 K, 101.33 kPa, x1 = 0.3831	0.429
293.15 K, 101.33 kPa, x1 = 0.4997	0.445
293.15 K, 101.33 kPa, x1 = 0.5976	0.462
293.15 K, 101.33 kPa, x1 = 0.6939	0.483
293.15 K, 101.33 kPa, x1 = 0.7977	0.51
293.15 K, 101.33 kPa, x1 = 0.905	0.542
293.15 K, 101.33 kPa, x1 = 0.9304	0.552
303.15 K, 101.33 kPa, x1 = 0.05501	0.368
303.15 K, 101.33 kPa, x1 = 0.1135	0.369
303.15 K, 101.33 kPa, x1 = 0.1897	0.372
303.15 K, 101.33 kPa, x1 = 0.2828	0.377
303.15 K, 101.33 kPa, x1 = 0.4056	0.388
303.15 K, 101.33 kPa, x1 = 0.5087	0.4
303.15 K, 101.33 kPa, x1 = 0.5969	0.413
303.15 K, 101.33 kPa, x1 = 0.6951	0.431
303.15 K, 101.33 kPa, x1 = 0.803	0.454
303.15 K, 101.33 kPa, x1 = 0.9043	0.481
303.15 K, 101.33 kPa, x1 = 0.9349	0.49
308.15 K, 101.3 kPa, x1 = 0.0525	0.357
308.15 K, 101.3 kPa, x1 = 0.156	0.366
308.15 K, 101.3 kPa, x1 = 0.1959	0.369
308.15 K, 101.3 kPa, x1 = 0.2969	0.379
308.15 K, 101.3 kPa, x1 = 0.4989	0.406
308.15 K, 101.3 kPa, x1 = 0.5971	0.421
308.15 K, 101.3 kPa, x1 = 0.7995	0.459
308.15 K, 101.3 kPa, x1 = 0.8524	0.47
308.15 K, 101.3 kPa, x1 = 0.9236	0.487
308.15 K, 101.3 kPa, x1 = 0.9531	0.494
308.15 K, 101.3 kPa, x2 = 0.0175	0.501
313.15 K, 101.33 kPa, x1 = 0.06751	0.334
313.15 K, 101.33 kPa, x1 = 0.1218	0.335
313.15 K, 101.33 kPa, x1 = 0.1984	0.338
313.15 K, 101.33 kPa, x1 = 0.2903	0.342
313.15 K, 101.33 kPa, x1 = 0.4044	0.351
313.15 K, 101.33 kPa, x1 = 0.5173	0.363
313.15 K, 101.33 kPa, x1 = 0.5954	0.373
313.15 K, 101.33 kPa, x1 = 0.6931	0.388
313.15 K, 101.33 kPa, x1 = 0.8053	0.409
313.15 K, 101.33 kPa, x1 = 0.9053	0.432
313.15 K, 101.33 kPa, x1 = 0.9355	0.44
318.15 K, 101.3 kPa, x1 = 0.0525	0.326
318.15 K, 101.3 kPa, x1 = 0.156	0.337
318.15 K, 101.3 kPa, x1 = 0.1959	0.341
318.15 K, 101.3 kPa, x1 = 0.2969	0.352
318.15 K, 101.3 kPa, x1 = 0.4989	0.379
318.15 K, 101.3 kPa, x1 = 0.5971	0.397
318.15 K, 101.3 kPa, x1 = 0.7995	0.427
318.15 K, 101.3 kPa, x1 = 0.8524	0.437
318.15 K, 101.3 kPa, x1 = 0.9236	0.451
318.15 K, 101.3 kPa, x1 = 0.9531	0.458
318.15 K, 101.3 kPa, x2 = 0.0175	0.465
